# According to patent publication US9682118B1, “Inhibition of metastasis by cell penetrating peptides” (University of Mississippi Medical Center, priority 2006, dated 2017):
# Tested on: SKOV-3 cells
# Experiment: Boyden chamber migration assay
# Assay type: cell-based
# Conditions: SKOV-3, 8 μm pores, 24 h
# Experimental: FIG. 14 is data related to a Boyden chamber assay. […] Cells were washed, fixed, stained with hematoxylin and 4 random fields were counted at 20× magnification. FIG. 14B is a set of images after cells were later incubated with Hoechst dye for 10 min. and images were obtained at 10× magnification.
# In order to confirm the role of CPP-ELPs in preventing migration of SKOV-3 cells, a boyden chamber assay was performed (35). This assay involves a membrane with pore size of 8 μm. SKOV-3 cells are plated on one side of the membrane, and a chemoattractant (FBS) is placed on the opposite side of the membrane. The cells are allowed to migrate trough the pores toward the chemoattractant for […], and the cells which penetrated the membrane are quantified by cell counting and independently by Hoechst staining and fluorescence microscopy. […] Serum starvation of cells overnight ruled out the fact that proliferation was a contributing factor in this assay.
substance,measurement,value
Tat (YGRKKRRQRRR; Tat CPP) [Tat peptide],migration across the membrane toward FBS,migrated across the membrane
